US20090047224A1, “Cosmetic Process for Preventing or Treating the Signs of Skin Ageing or the Orange-Peel Appearance” (L'OREAL, priority 2003, published 2009)
Where two headings read alike, the source gives them in different places.

What was measured:
[1] = tested on: supercoiled circular DNA (plasmid pBR322); experiment: Antioxidant effect: DNA-protecting effect under simulated daily UV with ferric ions and riboflavin; type: biochemical; conditions: 30 minutes simulated daily UV
Procedure: The DNA-protecting effect of the compounds according to the invention was evaluated by comparison with vitamin C and N-acetylcysteine, which are two well-known antioxidants.
In this test, supercoiled circular DNA (plasmid pBR322, Roche) is placed in solution in the presence of 10 mM phosphate buffer (pH=7) and ferric ions (FeCl3, Sigma) at a concentration of 1 μM and in the presence of riboflavin (Sigma) at a concentration of 0.5 μM. The iron amplifies, via the Fenton reaction, the photo-oxidative impact on the DNA. Its presence also makes it possible to evaluate the potential chelating effect of the N-hydroxy imides according to the invention.
The samples are exposed for 30 minutes to simulated daily UV (attenuated UVB+total UVA) obtained using the Oriel solar simulator equipped with a suitable optical filter and a dichroic mirror. The corresponding spectrum is illustrated in FIG. 3.
The DNA is then subjected to electrophoresis on 1% agarose gel to separate the supercoiled forms, relaxed due to induction of breaks and linearized. After treatment in a gel with the fluorescent intercalating agent ethidium bromide, these three forms may be quantified by densitometry of the agarose gel under UV.

bovine serum albumin = experiment: Anti-glycation effect: inhibition of glycation of bovine serum albumin by D-ribose, measured by fluorescence; type: biochemical; conditions: for IC50: BSA + D-ribose 100 mM, 37° C., four weeks; for anti-glycation activity: compared with aminoguanidine
Procedure: A solution of bovine serum albumin at 5 or 10 mg/ml dissolved in phosphate-buffered saline is incubated at 37° C. for four weeks in the presence or absence of the test compounds at a concentration of between 20 and 160 μg/ml, and in the presence or absence of D-ribose at 100 mM.
After this incubation, dialysis of each sample is performed for 24 hours against MilliQ water.
The glycation of the BSA is evaluated by measuring the fluorescence of each sample at λex 320/λex 380 nm (which corresponds to the formation of the pentosidine glycation product) and at λex 370/λex 440 nm (which corresponds to AGEs).
The inhibition of glycation corresponds to a decrease in fluorescence compared with the glycated control (treated with sugar). The concentration of compound leading to a 50% inhibition of glycation, or IC50, is determined.
Aminoguanidine is used as positive control and tested at various concentrations of between 20 and 160 μg/ml.

[2] = Release of ammonia on heating; type: physicochemical; conditions: in contrast with aminoguanidine
[3] = fluorescence corresponding to AGEs, read-out: λex 370/λex 440 nm IC50
[4] = fluorescence corresponding to formation of the pentosidine glycation product, read-out: λex 320/λex 380 nm IC50

Compound	IC50 (bovine serum albumin; [3])	IC50 (bovine serum albumin; [4])	other results
N=C(N)NN [Aminoguanidine, reference compound]	700 µM	200 µM	–
CC(=O)N[C@@H](CS)C(=O)O [N-Acetylcysteine, reference compound]	–	–	Score (level of DNA protection) ([1]; Concentration 1 mM): ++ (The score (++) means that the active agent reduces the photodegradation of the DNA by at least 50%)
O=C1CCC(=O)N1O [Compound 1, N-hydroxysuccinimide]	–	–	releasing ammonia on heating [2]: not releasing ammonia on heating; anti-glycation activity (bovine serum albumin): more moderate than aminoguanidine
O=C1CCCC(=O)N1O [Compound 6, N-hydroxy-piperidine-2,6-dione]	–	–	anti-glycation activity (bovine serum albumin): more moderate than aminoguanidine
O=C1O[C@H]([C@@H](O)CO)C(O)=C1O [Vitamin C, reference compound]	–	–	Score (level of DNA protection) ([1]; Concentration 1 mM): + (The score (+) means that the active agent reduces the photodegradation of the DNA by at least 20%)

Second part, led by results:

IC50 (bovine serum albumin; [3])	IC50 (bovine serum albumin; [4])	Compound	other results
45 µM	0.8 µM	O=C1c2cccc3cccc(c23)C(=O)N1O [Compound 5, N,N-(1,8-naphthaloyl)hydroxylamine]	Score (level of DNA protection) ([1]; Concentration 0.01 mM): + (The score (+) means that the active agent reduces the photodegradation of the DNA by at least 20%)
600 µM	800 µM	O=C1C=CC(=O)N1O [Compound 2, N-hydroxymaleimide]	–
250 µM	200 µM	O=C1c2ccccc2C(=O)N1O [Compound 4, N-hydroxyphthalimide]	–
40 µM	30 µM	O=C1C=C(c2ccccc2)C(=O)N1O [Compound 3, N-hydroxy-2-phenylmaleimide]	Score (level of DNA protection) ([1]; Concentration 0.1 mM): ++ (The score (++) means that the active agent reduces the photodegradation of the DNA by at least 50%)
